Laboratory results as given in PMC11994961, “In Vivo pharmacokinetic interactions of ribociclib with rivaroxaban and apixaban in rats: implications for increased drug exposure and dose adjustments” (Frontiers in Pharmacology, 2025).
Where two headings read alike, the source gives them in different places.

Key:
[1] = set-up: method as in Wang et al., 2023; conditions: rats, with almonertinib; ref Wang et al., 2023; cited from earlier work
[2] = set-up: method as in Hindley et al., 2023; conditions: ref Hindley et al., 2023; cited from earlier work
[3] = Pharmacokinetic study of apixaban in rats, alone and after ribociclib (UPLC-MS/MS plasma levels); type: in vivo, Sprague-Dawley rats; conditions: for AUC(0-inf) / Cmax / Tmax / half-life / CL/F / MRT inf / MRT last / Vd/F: po, 0.5 mg/kg; for CL/F: read-out: CLz/F (converted); for MRT inf: read-out: MRT0- ∞; for MRT last: read-out: MRT0-t; for Vd/F: read-out: Vz/F
Description: Experimental animals were randomly divided into nine groups (n = 6, Table 1). Ribociclib was suspended in methylcellulose (MC), rivaroxaban was prepared in hydroxypropyl methylcellulose (HPMC), and apixaban was suspended in 5% DMSO in water. To achieve steady-state blood concentrations, a drug typically requires five to seven half-lives. Based on this principle, ribociclib was administered orally for eight consecutive days, while rivaroxaban and apixaban were administered orally for five consecutive days to ensure steady-state concentrations were reached before further analysis.
Approximately 0.1 mL of blood was collected into heparinized tubes via the orbitalat specified time points before and after the final drug administration. For apixaban, blood samples were collected at 0, 0.083, 0.167, 0.25, 0.333, 0.5, 0.75, 1, 3, 5, 7, 10, and 12 h. For rivaroxaban, sampling was conducted at 0, 0.167, 0.333, 0.5, 0.75, 1.5, 2, 3, 4, 5, 6, 8, 10, 12, and 24 h. For ribociclib, samples were taken at 0, 0.5, 1, 2, 4, 5, 6, 8, 10, 12, 24, and 48 h. Blood samples were centrifuged at 3,500 rpm for 10 min, and the supernatant was collected and stored at −80°C until processing for UPLC-MS/MS.
Apixaban and rivaroxaban concentrations in plasma samples were determined using our previously established UPLC-MS/MS method ([Wang et al., 2023]). Ribociclib concentrations were quantified using an LC-30A UPLC system (Shimadzu, Kyoto, Japan) coupled with a Sciex Triple Quad 5500 tandem quadrupole mass spectrometer (AB Sciex, Framingham, MA, United States) equipped with an electrospray ionization interface. Chromatographic separation was performed using a Welch Boltimate column (2.1 mm × 100 mm, 2.7 μm) maintained at 40°C. The mobile phase was composed of water containing 0.1% formic acid (phase A) and acetonitrile (phase B). The flow rate was held constant at 0.3 mL/min. The gradient elution protocol was as follows: 0–2.5 min, 60% B; 2.5–3.5 min, 60%–90% B; 3.5–5.5 min, 90% B; 5.5–5.6 min, 90%–60% B; 5.6–6.6 min, 60% B. The injection volume was 1 μL.
Pharmacokinetic parameters were calculated based on a non-compartmental model using DAS 2.1.1 Software (Mathematical Pharmacology Professional Committee of China, Shanghai, China). The area under the concentration–time curve (AUC), maximum plasma concentration (Cmax), time to maximum plasma concentration (Tmax), the time required to eliminate half of the plasma drug concentration (t1/2), clearance of drug plasma volume per unit time (CLz/F), apparent volume distribution (Vz/F), mean residence time (MRT) and the absorption rate constant (Ka) are all expressed as mean ± standard deviation (SD). SPSS 25.0 statistical software (SPSS Inc., Chicago, IL, United States) was applied to statistically analyze the mainpharmacokinetic parameters. Shapiro-Wilk test was used to assess whether the data were normally distributed, t test was used for parameters conforming to the normal distribution, and Mann-Whitney U test was used for parameters not conforming to the normal distribution. Statistical comparisons were conducted using a analysis of variance, t-test or nonparametric rank-sum test depending on the data type. A P-value <0.05 was deemed statistically significant.

[4] = API 0.5 mg/kg after multiple doses of RIBO vs API alone
[5] = Sprague-Dawley, rat, plasma, API 0.5 mg/kg after RIBO 60 mg/kg for 8 days
[6] = Sprague-Dawley, rat, plasma, oral API 0.5 mg/kg alone

AUC(0-t) ([3]; API 0.5 mg/kg after RIBO 60 mg/kg for 8 days): 608.21 ± 196.17 ng·h/mL
CLz/F was decreased by [3, 4]: 32.23%
difference in AUC0-t [3, 4]: not statistically significant
difference in Cmax [3, 4]: not statistically significant
difference in Tmax [3, 4]: not statistically significant
increase of MRT0- ∞ [3, 4]: 61.41%
increase of MRT0-t [3, 4]: 14.45%
increase of t1/2z [3, 4]: 115.90%
AUC(0-t) ([3]; Sprague-Dawley, rat, plasma, oral API 0.5 mg/kg alone, read-out: AUC0-t): 409 ± 55.3 ng·h/mL
AUC(0-inf) [3, 5]: 675 ± 221 ng·h/mL
Cmax [3, 5]: 156 ± 42.4 ng/mL
Tmax [3, 5]: 0.75 ± 0.16 h
half-life [3, 5]: 5.16 ± 3.22 h
CL/F [3, 5]: 13.7 mL/min/kg
MRT inf [3, 5]: 4.81 ± 2.07 h
MRT last [3, 5]: 3.01 ± 0.3 h
Vd/F [3, 5]: 5.57 ± 2.63 L/kg
AUC(0-inf) [3, 6]: 420 ± 54.2 ng·h/mL
Cmax [3, 6]: 140 ± 29.4 ng/mL
Tmax [3, 6]: 0.88 ± 0.14 h
half-life [3, 6]: 2.39 ± 0.53 h
CL/F [3, 6]: 20.2 mL/min/kg
MRT inf [3, 6]: 2.98 ± 0.32 h
MRT last [3, 6]: 2.63 ± 0.1 h
Vd/F [3, 6]: 4.16 ± 1.07 L/kg
Compound: COc1ccc(-n2nc(C(N)=O)c3c2C(=O)N(c2ccc(N4CCCCC4=O)cc2)CC3)cc1 [API, apixaban]
increase in AUC [1]: over three fold increases
increase in Cmax [1]: over three fold increases
plasma protein binding [2]: approximately 87%
